Values joined by “and” are separate entries in the source; they are usually repeats but may differ in a detail not shown here. Identical values can stand only once. Like-named read-outs stand apart in the source and are kept apart here. Non-standard residues stand in square brackets, D forms with d. Residues, ends and D or L forms follow the SMILES beside them. Ala(indol-4-yl) = N[C@@H](Cc1cccc2[nH]ccc12)C(=O)O; NMeR = CN[C@@H](CCCNC(=N)N)C(=O)O; Tle = CC(C)(C)[C@H](N)C(=O)O
Tests used:
rNTS1 = target: T1, rNTS1 (Rattus norvegicus, UniProt P20789); experiment: Competition binding of [3H]-NT to HEK293 cell membranes expressing rNTS1
T1 construct: expressed in transfected cells; membrane homogenates
T1 sequence (P20789 whole entry): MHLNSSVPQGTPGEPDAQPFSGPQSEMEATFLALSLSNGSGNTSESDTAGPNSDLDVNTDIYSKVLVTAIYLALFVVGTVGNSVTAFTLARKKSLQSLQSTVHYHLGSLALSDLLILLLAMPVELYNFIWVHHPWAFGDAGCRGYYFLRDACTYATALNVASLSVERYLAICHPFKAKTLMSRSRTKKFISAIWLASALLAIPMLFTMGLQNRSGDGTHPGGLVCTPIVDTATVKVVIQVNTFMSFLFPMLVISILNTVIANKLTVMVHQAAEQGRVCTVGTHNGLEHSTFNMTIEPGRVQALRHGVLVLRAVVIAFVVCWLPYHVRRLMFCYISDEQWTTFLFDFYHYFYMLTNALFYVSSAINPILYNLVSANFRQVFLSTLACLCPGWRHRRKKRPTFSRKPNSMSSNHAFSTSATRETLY
Procedure: (§1) Cells were fed every 2 days with 20 ml of medium. 70–80% confluent HEK 293 cells were washed twice with phosphate-buffered saline solution, scraped into 50 mM Tris-HCl (pH 7.4) buffer containing 1 mM EDTA and 250 mM sucrose and centrifuged at 15,000 g for 12 min at 4°C. Pellets were then re-suspended in hypotonic TE buffer (50 mM Tris-HCl (pH 7.4) buffer containing 1 mM EDTA) and membrane homogenates were recovered by centrifugation for 30 min at 4°C. The final protein concentration was determined with the use of the BCA assay kit (Pierce Biotechnology Inc, Rockford, IL).
(§2) Binding was terminated by two successive additions of 3 ml of ice-cold buffer and filtering under vacuum through GF/B filters presoaked in binding buffer containing 0.2% polyethyleneimine (48-well Brandel Harvester). Filters were placed in scintillation vials containing 5 ml scintillation liquid (Ecolite) and then counted in a beta counter.

rNTS2 = target: T2, rNTS2 (Rattus norvegicus, UniProt Q63384); experiment: Competition binding of [3H]-NT to HEK293 cell membranes expressing rNTS2
T2 construct: expressed in transfected cells; membrane homogenates
T2 sequence (Q63384 1-416): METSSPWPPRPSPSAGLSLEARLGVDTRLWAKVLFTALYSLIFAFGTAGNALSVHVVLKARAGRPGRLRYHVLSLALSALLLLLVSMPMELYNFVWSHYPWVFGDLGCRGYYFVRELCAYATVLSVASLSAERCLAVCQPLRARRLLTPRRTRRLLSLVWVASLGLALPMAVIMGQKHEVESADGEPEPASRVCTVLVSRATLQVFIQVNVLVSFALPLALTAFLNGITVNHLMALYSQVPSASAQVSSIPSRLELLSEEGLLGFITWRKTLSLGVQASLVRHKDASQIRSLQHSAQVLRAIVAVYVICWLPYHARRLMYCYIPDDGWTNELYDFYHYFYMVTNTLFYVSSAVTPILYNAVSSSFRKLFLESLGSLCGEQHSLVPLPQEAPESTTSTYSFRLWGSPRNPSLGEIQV
Procedure: as §1, §2

c-fos = experiment: Formalin-evoked c-fos-like immunoreactivity in lumbar spinal cord (L4-L5); assay type: in vivo; details: rat
Procedure: At 45 min following formalin injection, rats were deeply anesthetized and perfused intraaortically with ice-cold 4% paraformaldehyde (Fisher Scientific, Montreal, QC, Canada) in 0.1 M PB, pH 7.4. The spinal cord was isolated and then cryoprotected overnight at 4°C in 30% sucrose in phosphate-buffered saline (PBS). Prior to tissue sectioning, an incision was made in the ventral horn of the contralateral side to allow spatial positioning of the spinal cord for further analysis. Transverse frozen sections (35-μm-thick) were then cut from the lumbar segment (L4-L5) of the spinal cord with a sliding microtome and processed by a free-floating slice immunohistochemistry procedure. After elimination of endogenous peroxidase activity with 0.3% hydrogen peroxide in PBS for 1 h, the tissue sections were rinsed three times in PBS and incubated for 1 h at RT in a blocking solution of 3% normal goat serum (NGS) and 0.3% Triton X-100 in PBS. After washing, free-floating sections were incubated overnight at RT with the rabbit anti-c-fos polyclonal antibody diluted 1:1000 in PBS (sc-52, Santa Cruz Biotechnology, Santa Cruz, CA, USA), containing 1% NGS and 0.3% Triton X-100. The tissue was then washed three times in PBS and transferred to a goat anti-rabbit biotinylated secondary IgG complex (1:200 in 1% NGS and 0.3% Triton X-100 in PBS; Vector, Burlingame, CA, USA) for 1 h at RT followed by exposing to avidin-biotin horseradish peroxydase complex (1:100; Vectastain ABC-Elite kit, Vector Laboratories, Burlington, ON, Canada) for 1 h at RT. After the final wash with PBS, the chromagen was developed using nickel intensified 3,3'-diaminobenzidine (DAB, 0.01%) and 0.3% H2O2. Finally, the sections were thoroughly rinsed with PBS, mounted onto slides, dehydrated in a series of graded alcohols, defatted in xylene, and placed on coverslips.
Sections were visually scanned and photographed using a bright-field microscope (Leica DM4000B; Leica Microsystems, Toronto, Canada). The individual sections were printed and overlaid with an acetate sheet on which the distribution of c-fos immunoreactive neurons was then plotted. […] For the quantification of c-fos labeled neurons, each section of the spinal cord was divided into four regions of interest: the superficial laminae (laminae I, IIo and IIi), the nucleus proprius (laminae III and IV), the neck of the dorsal horn (laminae V and VI) and the deep lamina X according to the cytoarchitectonic organization of the spinal cord. The number of c-fos immunoreactive neurons in the four defined regions was determined by averaging the counts made in 10–15 sections and expressed as mean ± S.E.M. of these values for all the rats in that treatment group for statistical analysis of the different experimental conditions. […] A Dunnett's t-test was applied to assess differences between the drug and vehicle groups. A value of P < 0.05 was considered statistically significant.

[1] = system: formalin-induced nociceptive behaviors; experiment: Formalin test, cumulative time in stereotypic behaviors (lifting; flinching/licking/biting); assay type: in vivo; details: rat
Procedure: Experiments were performed with adult male Sprague-Dawley rats (250–300 g; Charles River, St-Constant, QC, Canada) kept on a 12 h light/dark cycle and allowed ad libitum access to food and water. Animals were individually acclimatized to Plexiglas enclosures for 3 consecutive days prior to testing. The formalin test was always performed by […] in a quiet room and between 08.00 AM and 12.00 PM to reduce any variation related to circadian rhythm. The experimental procedures in this study were approved by the Animal Care Committee of the University of Sherbrooke and were in accordance with policies and directives of the Canadian Council on Animal Care.
Behavioral experiments aimed at establishing the effects of NT analogs and NTS2-selective agonists on formalin-induced nocifensive behaviors. To this end, rats were lightly anesthetized with isoflurane (Abbott Laboratories, Montreal, QC, Canada) and injected intrathecally, at the L5-L6 intervertebral space, with either NT (6 μg/kg), NT69L (5 μg/kg), JMV-431 (5 to 60 μg/kg), or levocabastine (0.5 and 5 μg/kg) diluted in 30 μl of physiological saline (0.9% NaCl), 5 min before formalin administration. Control animals received physiological saline.
Antinociception was assessed using the formalin test as a model of persistent pain. […]
Following this, the rats were placed in clear plastic chambers (30 × 30 × 30 cm) positioned over a mirror angled at 45°, in order to allow an unobstructed view of the paws, and their behaviors were recorded for the next 60 min. […] Nocifensive behaviors were assessed using a weighed score as described previously. […] The weighted nociceptive score, ranging from 0 to 3, is calculated by multiplying the time spent in each category by its assigned weight category, summing these products and dividing by the total time for each 3 min block of time. The total area under the curve (A.U.C.) for the inflammatory phase (phase 2) was calculated between 21 to 60 min for each animal. Phase 2 was further subdivided in early (21–39 min) and late (40–60) phases and analyzed as separate events. Formalin-induced pain related behavior may also be quantified by monitoring the number and the duration of episodes of different behavioral endpoints. The cumulative time spent in both lifting (state 2) and flinching/licking/biting (state 3), reflecting behavioral reactions integrated at different CNS levels, were also determined during the inflammatory phase (21 to 60 min following formalin).
Data are presented as means ± standard errors of the mean (S.E.M.). […] Nociceptive scores over the 3 min time blocks were analyzed using a two-way analysis of variance for repeated measures, with comparisons between experimental groups and the control group at each time interval using Bonferroni's post hoc t-test. […]

[2] = system: formalin-induced nociceptive behaviors; experiment: Formalin test, weighted pain score (A.U.C.) after intrathecal pretreatment; assay type: in vivo; details: rat, i.t. 5 μg/kg; for reduction of pain behaviors in the tonic phase (phase 2, 21-60 min, A.U.C.) vs vehicle: 5 min before formalin
Procedure: Experiments were performed with adult male Sprague-Dawley rats (250–300 g; Charles River, St-Constant, QC, Canada) kept on a 12 h light/dark cycle and allowed ad libitum access to food and water. Animals were individually acclimatized to Plexiglas enclosures for 3 consecutive days prior to testing. The formalin test was always performed by three different experimenters in a quiet room and between 08.00 AM and 12.00 PM to reduce any variation related to circadian rhythm.
Antinociception was assessed using the formalin test as a model of persistent pain. For this purpose, rats were placed for a 60-min habituation period in the experimentation room. Thereafter, rats received a 50 μl subcutaneous injection of diluted 2% formaldehyde (i.e. 5% formalin, Fisher Scientific, Montreal, QC, Canada) into the plantar surface of the right hind paw.
Following this, the rats were placed in clear plastic chambers (30 × 30 × 30 cm) positioned over a mirror angled at 45°, in order to allow an unobstructed view of the paws, and their behaviors were recorded for the next 60 min. […] Nocifensive behaviors were assessed using a weighed score as described previously [43, 44]. […] The weighted nociceptive score, ranging from 0 to 3, is calculated by multiplying the time spent in each category by its assigned weight category, summing these products and dividing by the total time for each 3 min block of time. The total area under the curve (A.U.C.) for the inflammatory phase (phase 2) was calculated between 21 to 60 min for each animal. Phase 2 was further subdivided in early (21–39 min) and late (40–60) phases and analyzed as separate events [45]. […] The cumulative time spent in both lifting (state 2) and flinching/licking/biting (state 3), reflecting behavioral reactions integrated at different CNS levels, were also determined during the inflammatory phase (21 to 60 min following formalin) [42].
Data are presented as means ± standard errors of the mean (S.E.M.). All calculations and statistical analysis were performed using Prism 4.0 and Instat 3.05 (Graph Pad Software, San Diego, CA, USA). Nociceptive scores over the 3 min time blocks were analyzed using a two-way analysis of variance for repeated measures, with comparisons between experimental groups and the control group at each time interval using Bonferroni's post hoc t-test. A one-way ANOVA followed by Dunnett's post hoc t-test was used to determine the significance of differences in the A.U.C. and in the time spent in states 2 and 3. A difference in responses between groups was considered significant with P values; * P < 0.05 and ** P < 0.01.

[3] = i.t. 5 μg/kg, 45 min after formalin

CC[C@H](C)[C@H](NC[C@H](Cc1ccc(O)cc1)NC(=O)[C@@H]1CCCN1C(=O)[C@H](CCCNC(=N)N)NC(=O)[C@H](CCCNC(=N)N)NC(=O)OC(C)(C)C)C(=O)N[C@@H](CC(C)C)C(=O)O [JMV-431, Boc-Arg-ArgPro-Tyrø(CH2NH)-Ile-Leu-OH]
IC50 (rNTS1): 4740 ± 135 nM | IC50 (rNTS2; IC50 rNTS2): 19 ± 3.2 nM

CN[C@@H](CCCNC(=N)N)C(=O)N[C@@H](CCCCN)C(=O)N1CCC[C@H]1C(=O)N[C@@H](Cc1cccc2[nH]ccc12)C(=O)N[C@H](C(=O)N[C@@H](CC(C)C)C(=O)O)C(C)(C)C [NT69L, N-methyl-Arg-Lys-Pro-L-neo-Trp-tert-Leu-Leu-OH] (H-[NMeR]KP[Ala(indol-4-yl)][Tle]L-OH; N-terminus assumed)
effect on spinal nociceptive neuronal responses (c-fos) induced by formalin (c-fos; data not shown): attenuated | reduction of lifting time during the tonic phase ([1]; i.t. NT69L 5 μg/kg): 74 ± 13% | attenuation of flinching, licking and biting responses (maximum antagonism) ([1]; i.t. NT69L 5 μg/kg, tonic phase): 70 ± 15% | decrease in A.U.C. in early phase 2 (21-39 min) [2]: 70 ± 13% | decrease in A.U.C. in late phase 2 (40-60 min) [2]: 48% ± 19 | reduction of pain behaviors in the tonic phase (phase 2, 21-60 min, A.U.C.) vs vehicle [2]: 59 ± 13% | IC50 (rNTS1): 2.2 ± 0.5 nM | IC50 (rNTS2; IC50 rNTS2): 3.7 ± 0.4 nM

C[C@@H]1CN([C@H]2CC[C@](C#N)(c3ccc(F)cc3)CC2)CC[C@]1(C(=O)O)c1ccccc1 [Levocabastine, levocabastine]
reduction of contralateral c-fos immunoreactivity, lamina X (c-fos; [3]): 98 ± 1% | reduction of contralateral c-fos immunoreactivity, laminae I-II (c-fos; [3]): 74 ± 7% | reduction of contralateral c-fos immunoreactivity, laminae III-IV (c-fos; [3]): 72 ± 7% | reduction of contralateral c-fos immunoreactivity, laminae V-VI (c-fos; [3]): 77 ± 5% | reduction of number of c-fos-LI neurons, ipsilateral laminae I-II (c-fos; [3]): 26 ± 7% | reduction of number of c-fos-LI neurons, ipsilateral laminae III-IV (c-fos; [3]): 60 ± 5% | reduction of number of c-fos-LI neurons, ipsilateral laminae V-VI (c-fos; [3]): 53 ± 3% | reduction of number of c-fos-LI neurons, ipsilateral laminae X (c-fos; [3]): 56 ± 8% | effect on formalin-evoked licking/shaking/biting behaviors, phase 2 ([1]; i.t., all doses tested): do not reverse | inhibition of cumulative time spent in lifting, phase 2 (21-60 min) ([1]; i.t., maximum reached over the doses tested (JMV-431 5-60 μg/kg, levocabastine 0.5-5 μg/kg)): 73 ± 5% | decrease in A.U.C. in early phase 2 (21-39 min) [2]: no effect | decrease in A.U.C. in late phase 2 (40-60 min) [2]: 48 ± 16% | reduction of pain behaviors in the tonic phase (phase 2, 21-60 min, A.U.C.) vs vehicle [2]: 29 ± 5% | IC50 (rNTS1; read-out: IC50 rNTS1): > 10000 nM | IC50 (rNTS2; inhibition of 2 nM [3H]-NT binding, HEK293 cell membranes expressing rat NTS2, read-out: IC50 rNTS2): 3 nM and 2.7 nM

From paper PMC2714839, “Evidence for a role of NTS2 receptors in the modulation of tonic pain sensitivity” (Molecular Pain, 2009)
